Data set [1] relates to blood suspensions from humans with homozygous SCD. Put plainly: Oxygen-independent sickle inhibition under anoxia (100% nitrogen) in SS blood suspensions. It counts as cell-based, human. The protocol: All compounds (Comp 1-13) and comparator molecules (VZHE-039, PP-14, INN-310, and Voxelotor) were evaluated following established procedures (Abdulmalik et al., 2005, 2020; Pagare et al., 2020). Blood samples from individual donors with homozygous SCD (obtained with informed consent) were diluted using Hemox buffer solution with the addition of glucose (10 mM) and BSA (0.2%) to adjust hematocrit of the blood suspensions to 20%, which standardizes the procedure to normalize the ratio of RBCs to drug, for assay consistency and reproducibility. Briefly, blood suspensions were incubated under room air in the presence of various concentrations of test compounds (0-2 mM) at 37° C. for 1 hour in 96-well round bottom plates. Subsequently, the suspensions were incubated with a hypoxic gas mixture (2.5% Oxygen gas/balance Nitrogen gas) at 37° C. for up to 2 hours prior to fixation with 2% glutaraldehyde solution without exposure to air. The fixated blood aliquots were evaluated by microscopic morphological analysis (image analysis on Image J software) to identify the proportion of sickled and non-sickled RBCs, and sickle inhibition calculated based on the % change from negative control (DMSO).
To establish oxygen-independent sickle inhibition, the incubation chamber was subsequently opened and exposed to room air for 15 minutes to ensure complete re-oxygenation and reversal of the sickled cells to normal round cells. Reversal was confirmed by microscopy. The incubation chamber was then closed, and the assay was repeated with incubation in 100% nitrogen gas for 1 hour (for screening), or up to 2.5 h (for time-course studies), with collection and fixation of blood aliquots at defined intervals. Aliquot samples were again subjected to microscopic morphological analysis of bright field images to identify the proportion of sickled and non-sickled cells, and sickle inhibition calculated.

A short description of data set [2]: Single-dose oral pharmacokinetics in rats. The class given is in vivo, male Sprague Dawley (SD) rats. The conditions noted are these: rat whole blood; single oral dose 100 mg/kg. How it is done:
Single-dose pharmacokinetics (PK) in male Sprague Dawley (SD) rats (n=4) were assessed for each compound, and the maximum or peak whole blood concentration and area under the curve are shown in Table 5.
Single doses of each compound were administered as oral suspensions by gavage in 0.5% carboxy methylcellulose at 100 mg/kg. Whole blood levels were collected for at least 72 hours after dose administration. Bioanalyses were performed with liquid chromatography-tandem mass spectrometry […].

The conditions of data set [3]: most patients with SCD; cited from earlier work.
A short description of data set [4]: 14-day repeat-dose oral pharmacokinetics in rats. The class given is in vivo, male and female SD rats. The conditions noted are these: oral 100 mg/kg for 14 days, Day 14. The protocol: (§1) Repeat oral doses of each compound were administered by oral gavage for 14 days to male and female SD rats (n=3). […] Steady state exposures for the final dosing interval on Day 14 were similar to total compound exposure from single-dose PK.
(§2) Repeat doses of each compound were administered once daily as oral suspensions by gavage in 0.5% carboxy methylcellulose for 14 days at 100 mg/kg. Whole blood was collected at 7 time-points for up to 24 hours during the final dosing interval on Day 14. Clinical observations, body weights, and food consumption were recorded throughout the 14 day study. Clinical chemistry and hematologic parameters were assessed, and histopathology was performed on organs after 14 days of exposure to study drug.

Data set [5] can be described thus: ADME / bioavailability assessment.
Data set [6] is described as follows: 14-day repeat-dose safety (clinical observations, histopathology) in rats. It counts as in vivo, male and female SD rats. Particulars: for safety in non-clinical toxicology (in words): above anticipated therapeutic drug levels; for clinical or histopathologic changes after 14 days of exposure: rats, oral 100 mg/kg once daily for 14 days. How it is done:
as §1, §2

Data set [7] addresses T1, Hb (Homo sapiens, UniProt P69905).
T1 construct: as separate independent studies with non-sickle blood; from tissue; host or cells: non-sickling AA blood (red blood cells)
The data set is described as follows: Occupancy/dose-dependent p50 shift in human non-sickle blood. The class given is biochemical. The conditions noted are these: compared to Voxelotor at equivalent drug-Hb occupancy levels. The protocol:
Non-sickling human blood was incubated with test compounds at 0.25-2 mM concentrations at 37° C. for 1 hour in 96-well round bottom plates. At conclusion, RBCs were washed once with PBS, followed by lysis with deionized water. Approximately 100 μl aliquots of individual lysates were added to 3 mL of 0.1M potassium phosphate buffer, pH 7.0 in a cuvette and subjected to hemoximetry analysis using a Hemox™ Analyzer (TCS Scientific Corp.) as previously described. (Abdulmalik et al., 2020; Pagare et al., 2020) Change in p50 values (Δp50) was calculated by subtracting the p50 values of treated samples from the value of the control sample and expressing the difference as a percentage of control p50 values.

[8] abbreviates: female rats, read-out: Cmax [μM] female.
Where [9] appears, read: male rats, read-out: Cmax [μM] male.

SMILES strings stand for the structures. Entries after “also recorded” stand apart in the source; their conditions may differ.

T1 sequence (P69905 2-142 limits assumed): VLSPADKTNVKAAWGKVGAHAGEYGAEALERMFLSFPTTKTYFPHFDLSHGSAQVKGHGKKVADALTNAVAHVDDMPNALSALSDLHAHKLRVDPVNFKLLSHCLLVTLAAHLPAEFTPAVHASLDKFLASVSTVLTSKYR
T1 sequence (P68871 2-147 partner limits assumed): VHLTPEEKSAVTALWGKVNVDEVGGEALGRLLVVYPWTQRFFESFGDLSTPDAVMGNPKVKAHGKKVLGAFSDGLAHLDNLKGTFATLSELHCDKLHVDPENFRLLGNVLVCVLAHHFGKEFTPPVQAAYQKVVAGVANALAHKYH

With `O=Cc1c(F)cc(F)cc1OCc1ccccn1` [Comp 9, 2,4-difluoro-6-(pyridin-2-ylmethoxy)benzaldehyde], the “polymer destabilizing effects / sickle inhibition in anoxia (in words)” value in data set [1] was “completely negates the polymer destabilization effects”.

The Cmax is the maximum level reached in the sampled fluid or tissue. On to `O=Cc1c(O)cccc1OCc1cccnc1F` [Comp 6, 2-((2-fluoropyridin-3-yl)methoxy)-6-hydroxybenzaldehyde], for which, in data set [2], the “AUC0-∞” value was found to be 728 µM·h and the concentration peaked (Cmax) at 49 µM.

For the molecule `CC(C)n1nccc1-c1ncccc1COc1cccc(O)c1C=O` [Voxelotor, reference compound], the “polymer destabilizing effects / sickle inhibition in anoxia (in words)” value in data set [1] is “did not demonstrate any sickle inhibition”. For the same molecule, the “increase in Hb concentrations” value in data set [3] is reported as “at least 1 g/dl”. The “AUC0-∞ [μM*h] female” value in data set [4] (female rats) was 7,617 μM*h. In addition, the highest concentration (Cmax) was 548 µM in data set [4] (setting [8]) and 422 µM in data set [4] (setting [9]). The “AUC0-∞ [μM*h] male” value in data set [4] (male rats) was 6,760 μM*h.

For `COc1ccc(OCc2ccccn2)c(C=O)c1` [INN-310, reference compound], the “polymer destabilizing effects / sickle inhibition in anoxia (in words)” value in data set [1] is “only weak potency in anoxia”.

In the case of `O=Cc1c(O)cccc1OCc1ccccn1` [Comp 2, 2-hydroxy-6-(pyridin-2-ylmethoxy)benzaldehyde], the “polymer destabilizing effects / sickle inhibition in anoxia (in words)” value in data set [1] is “most potent polymer destabilizers discovered to date; also recorded: most potent and sustained polymer destabilizing effects observed to date”. In data set [5], the “absorption, distribution, metabolism and elimination (ADME) properties (in words)” value (“absorption, distribution” below) was “acceptable absorption, distribution, metabolism and elimination (ADME) properties without metabolic lability”. Besides, in data set [2], the “AUC0-∞ [μM*h]” value is 19,822 μM*h and the highest concentration (Cmax) was 958 µM. Besides, in data set [4] (female rats), the “AUC0-∞ [μM*h] female” value is 21,547 μM*h and the “Cmax (ng/ml) female” value is listed as 254,382 ng/ml. In addition, the peak concentration (Cmax) in data set [4] (setting [8]) came to 1110 µM. In data set [4] (male rats), the “AUC0-∞ [μM*h] male” value is 20,363 μM*h. For the same molecule, the Cmax in data set [4] (setting [9]) was 1110 µM. In data set [6], the “safety in non-clinical toxicology (in words)” value is reported as “without hepatotoxicity” and the “clinical or histopathologic changes after 14 days of exposure” value (from here on “clinical or histopathologic changes”) is “No clinical or histopathologic changes”. For the same molecule, in data set [7], the “changes in p50 of Hb in human blood (in words)” value (“changes in p50 of Hb” for short) is on record as “relatively weak changes in p50”.

Regarding `O=Cc1c(O)cccc1OCc1cccnc1` [Comp 1, 2-hydroxy-6-(pyridin-3-ylmethoxy)benzaldehyde], the “polymer destabilizing effects / sickle inhibition in anoxia (in words)” value in data set [1] was “most potent polymer destabilizers discovered to date; also recorded: most potent and sustained polymer destabilizing effects observed to date”. Further, the “absorption, distribution” value in data set [5] was “acceptable absorption, distribution, metabolism and elimination (ADME) properties without metabolic lability”. In data set [2], the “AUC0-∞ [μM*h]” value is 17,415 μM*h and the Cmax stood at 919 µM. In addition, the “AUC0-∞ [μM*h] female” value in data set [4] (female rats) is listed as 8,085 μM*h. The maximum concentration (Cmax) in data set [4] (setting [8]) is 534 µM. Also, the “AUC0-∞ [μM*h] male” value in data set [4] (male rats) is 10,490 μM*h. Also, the highest concentration (Cmax) in data set [4] (setting [9]) is 703 µM. In data set [6], the “safety in non-clinical toxicology (in words)” value is given as “without hepatotoxicity” and the “clinical or histopathologic changes” value is reported as “No clinical or histopathologic changes”. Besides, the “changes in p50 of Hb” value in data set [7] is “relatively weak changes in p50”.

As to `O=Cc1c(O)cccc1OCc1cncnc1` [Comp 10, 2-hydroxy-6-(pyrimidin-5-ylmethoxy)benzaldehyde], in data set [2], the “AUC0-∞ [μM*h]” value is reported as 3,011 μM*h and the concentration peaked (Cmax) at 157 µM.

For the molecule `O=Cc1c(O)cccc1OCc1cccc(CO)n1` [VZHE-039, reference compound], the “AUC0-∞ [μM*h]” value in data set [2] is given as 8,782 μM*h. The highest concentration (Cmax) worked out at 394 µM in data set [2], 894 µM in data set [4] (setting [8]) and 753 µM in data set [4] (setting [9]). The “AUC0-∞ [μM*h] female” value in data set [4] (female rats) is 12,188 μM*h. For the same molecule, in data set [4] (male rats), the “AUC0-∞ [μM*h] male” value is 11,585 μM*h. In addition, the “clinical or histopathologic changes” value in data set [6] was “Both clinical and histopathologic changes in the liver, including hepatocyte necrosis”.

On to `O=Cc1c(O)cccc1OCc1cncc(F)c1` [Comp 4, 2-((5-fluoropyridin-3-yl)methoxy)-6-hydroxybenzaldehyde], for which, in data set [2], the “AUC0-∞ [μM*h]” value is 3,360 μM*h and the maximum concentration (Cmax) was determined as 242 µM.

In the case of `O=Cc1c(F)cc(F)cc1OCc1ncccc1F` [Comp 13, 2,4-difluoro-6-((3-fluoropyridin-2-yl)methoxy)benzaldehyde], in data set [1], the “polymer destabilizing effects / sickle inhibition in anoxia (in words)” value is given as “completely negates the polymer destabilization effects”.

For `O=Cc1c(OCc2cccnc2)ccc(F)c1O` [Comp 12, 3-fluoro-2-hydroxy-6-(pyridin-3-ylmethoxy)benzaldehyde], the “polymer destabilizing effects / sickle inhibition in anoxia (in words)” value in data set [1] is recorded as “significantly reduced the potency of polymer inhibition”.

With `O=Cc1c(O)cccc1OCc1ncccc1F` [Comp 5, 2-((3-fluoropyridin-2-yl)methoxy)-6-hydroxybenzaldehyde], in data set [5], the “absorption, distribution” value is “acceptable absorption, distribution, metabolism and elimination (ADME) properties without metabolic lability”. Besides, in data set [2], the “AUC0-∞ [μM*h]” value is on record as 12,047 μM*h and the highest level (Cmax) was 348 µM. For the same molecule, the “AUC0-∞ [μM*h] female” value in data set [4] (female rats) is listed as 20,566 μM*h. In data set [4] (setting [8]), the highest concentration (Cmax) is 993 µM. Moreover, the “AUC0-∞ [μM*h] male” value in data set [4] (male rats) is 17,073 μM*h. Moreover, in data set [4] (setting [9]), the Cmax is 854 µM. In data set [6], the “safety in non-clinical toxicology (in words)” value is “without hepatotoxicity” and the “clinical or histopathologic changes” value was “No clinical or histopathologic changes”. Besides, in data set [7], the “changes in p50 of Hb” value is “relatively weak changes in p50”.

In the case of `O=Cc1c(O)cccc1OCc1ccccc1` [Reference A, 2-(benzyloxy)-6-hydroxybenzaldehyde, reference compound], in data set [1], the “polymer destabilizing effects / sickle inhibition in anoxia (in words)” value is “exhibits potent polymer destabilizing effects”. Moreover, the “bioavailability (in words)” value in data set [5] was “not bioavailable”.

Regarding `O=Cc1c(O)cccc1OCc1ncccc1Cl` [Comp 8, 2-((3-chloropyridin-2-yl)methoxy)-6-hydroxybenzaldehyde], in data set [2], the “AUC0-∞ [μM*h]” value is listed as 1,022 μM*h and the highest concentration (Cmax) stood at 76 µM.

(Values after patent US20260256752A1, “HIGHLY WATER SOLUBLE SCHIFF BASE PRODRUGS OF BENZALDEHYDE ALLOSTERIC MODULATORS” (ILLEXCOR HOLDINGS, LLC, priority 2022, published 2026).)
